Test results as given in patent publication US10770169B2, “Method of providing a treatment to a subject based on a dynamic pathway map” (THE REGENTS OF THE UNIVERSITY OF CALIFORNIA, priority 2010, dated 2020).
Read-outs that look alike come from different tables or passages of the source.

Experiments:
[1] = tested on: panel of 55 breast cancer cell lines; experiment: Cell growth inhibition assay (Cell Titer Glo, 72 h, 9 doses; GI50, TGI, LC50); type: cell-based, human; settings: Homo sapiens, read-out: GI50 (converted)
[2] = tested on: luminal, basal, claudin-low and ERBB2AMP breast cancer cell lines; experiment: Associations of clinically relevant subtypes and response (non-parametric ANOVA or t-test on GI50 ranks); type: cell-based, human; settings: Table 6; most sensitive subtype, FDR p<0.20
Method in brief: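 Significance was set at FDR p<0.20 after combining p-values across three test sets. Subtype–response associations came from rank-based non-parametric ANOVA or t-tests on GI50. For three-class comparisons, post-hoc tests of each group against the rest identified the most sensitive group, with FDR correction.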

With CO[C@H]1C[C@@H]2CC[C@@H](C)[C@@](O)(O2)C(=O)C(=O)N2CCCC[C@H]2C(=O)O[C@H]([C@H](C)C[C@@H]2CC[C@@H](OC(=O)C(C)(CO)CO)[C@H](OC)C2)CC(=O)[C@H](C)/C=C(\C)[C@@H](O)[C@@H](OC)C(=O)[C@H](C)C[C@H](C)/C=C/C=C/C=C/1C [Temsirolimus] the GI50 ([1]; 600MPE cell line, censored GI50 values) was 18.2 µM, the GI50 ([1]; AU565, AU565 cell line, censored GI50 values) was 0.1 µM and the GI50 ([1]; AU565, cell line AU565) was 0.1 µM. The GI50 ([1]; BT-20, BT20 cell line, censored GI50 values) was 0.776 µM, the GI50 ([1]; BT-20, cell line BT20) was 0.776 µM and the GI50 ([1]; BT-474, BT474 cell line, censored GI50 values) was 0.0135 µM. The GI50 ([1]; BT-474, cell line BT474) was 0.0135 µM, the GI50 ([1]; BT-483, BT483 cell line, censored GI50 values) was 66.1 µM and the GI50 ([1]; BT-483, cell line BT483) was 66.1 µM. For the same compound, the GI50 ([1]; CAMA-1, CAMA1 cell line, censored GI50 values) was 0.0437 µM, the GI50 ([1]; CAMA-1, cell line CAMA1) was 0.0437 µM and the GI50 ([1]; HCC38, HCC38 cell line, censored GI50 values) was 0.389 µM. For the same compound, the GI50 ([1]; HCC38, cell line HCC38) was 0.389 µM, the GI50 ([1]; HCC70, HCC70 cell line, censored GI50 values) was 0.407 µM and the GI50 ([1]; HCC70, cell line HCC70) was 0.407 µM. It also gave a GI50 ([1]; HCC1143, HCC1143 cell line, censored GI50 values) of 1.58 µM, a GI50 ([1]; HCC1143, cell line HCC1143) of 1.58 µM and a GI50 ([1]; HCC1187, HCC1187 cell line, censored GI50 values) of 0.794 µM. The GI50 ([1]; HCC1187, cell line HCC1187) was 0.794 µM, the GI50 ([1]; HCC1395, HCC1395 cell line, censored GI50 values) was 12.6 µM and the GI50 ([1]; HCC1395, cell line HCC1395) was 12.6 µM. The GI50 ([1]; HCC1419, HCC1419 cell line, censored GI50 values) was 0.0525 µM, the GI50 ([1]; HCC1419, cell line HCC1419) was 0.0525 µM and the GI50 ([1]; HCC1428, HCC1428 cell line, censored GI50 values) was 6.17 µM. The GI50 ([1]; HCC1428, cell line HCC1428) was 6.17 µM, the GI50 ([1]; HCC1500, HCC1500 cell line, censored GI50 values) was 24.5 µM and the GI50 ([1]; HCC1500, cell line HCC1500) was 24.5 µM. For the same compound, the GI50 ([1]; HCC1806, HCC1806 cell line, censored GI50 values) was 20.4 µM, the GI50 ([1]; HCC1806, cell line HCC1806) was 20.4 µM and the GI50 ([1]; HCC1937, HCC1937 cell line, censored GI50 values) was 0.437 µM. For the same compound, the GI50 ([1]; HCC1937, cell line HCC1937) was 0.437 µM, the GI50 ([1]; HCC1954, HCC1954 cell line, censored GI50 values) was 0.219 µM and the GI50 ([1]; HCC1954, cell line HCC1954) was 0.219 µM. The GI50 ([1]; HCC2185 cell line, censored GI50 values) was 0.0132 µM, the GI50 ([1]; HCC3153 cell line, censored GI50 values) was 20 µM and the GI50 ([1]; LY2 cell line, censored GI50 values) was 0.209 µM. The GI50 ([1]; MCF7, MCF7 cell line, censored GI50 values) was 1.55 µM, the GI50 ([1]; MCF7, cell line MCF7) was 1.55 µM and the GI50 ([1]; MDA-MB-134-VI, MDAMB134VI cell line, censored GI50 values) was 0.166 µM. The GI50 ([1]; MDA-MB-175-VII, MDAMB175VII cell line, censored GI50 values) was 2.29 µM, the GI50 ([1]; MDA-MB-361, MDAMB361 cell line, censored GI50 values) was 0.251 µM and the GI50 ([1]; MDA-MB-415, MDAMB415 cell line, censored GI50 values) was 0.0759 µM. It also gave a GI50 ([1]; MDA-MB-436, MDAMB436 cell line, censored GI50 values) of 53.7 µM, a GI50 ([1]; MDA-MB-453, MDAMB453 cell line, censored GI50 values) of 0.1 µM and a GI50 ([1]; MDA-MB-468, MDAMB468 cell line, censored GI50 values) of 5.62 µM. For the same compound, the GI50 ([1]; SK-BR-3, SKBR3 cell line, censored GI50 values) was 0.0537 µM, the GI50 ([1]; SUM52PE, SUM52PE cell line, censored GI50 values) was 0.000417 µM and the GI50 ([1]; SUM149PT, SUM149PT cell line, censored GI50 values) was 6.17 µM. For the same compound, the GI50 ([1]; SUM185PE, SUM185PE cell line, censored GI50 values) was 0.0011 µM, the GI50 ([1]; SUM1315MO2, SUM1315MO2 cell line, censored GI50 values) was 1.12 µM and the GI50 ([1]; SUM-159-PT, SUM159PT cell line, censored GI50 values) was 0.229 µM. It also gave a GI50 ([1]; T47D, T47D cell line, censored GI50 values) of 1.41 µM, a GI50 ([1]; UACC-812, UACC812 cell line, censored GI50 values) of 0.575 µM and a GI50 ([1]; ZR-75-1, ZR751 cell line, censored GI50 values) of 66.1 µM. It also gave a GI50 ([1]; ZR-75B, ZR75B cell line, censored GI50 values) of 0.107 µM, a GI50 ([1]; cell line 600MPE) of 18.2 µM and a GI50 ([1]; cell line HCC2185) of 0.0132 µM. For the same compound, the GI50 ([1]; cell line HCC3153) was 20 µM, the GI50 ([1]; cell line LY2) was 0.209 µM and the Subtype specificity [2] was “Luminal/ERBB2AMP”.
